In the supplement of paper PMC10307832:

Key:
Assay in all cases: relative viability (nuclei count vs DMSO), 5 days (fraction); higher = more cells survive
AGI-6780 = compound: O=C(Nc1cccc(C(F)(F)F)c1)Nc1cc(S(=O)(=O)NC2CC2)ccc1-c1ccsc1 [AGI-6780]
Procedure, shortened: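 In 1536-well plates, lung cancer cell lines rested overnight at 37 °C before five library-drug doses (not always all listed), √10 apart, were pinned onto vehicle-anchored plates. Nuclei were counted with MetaXpress from 4× Hoechst images taken after 5 days without medium change. Viability compares treated-well with vehicle-well nuclei as a median over plates, and plates needed control CV below 25% plus at least one doubling to pass.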

AGI-6780 + Tozasertib = compound: O=C(Nc1cccc(C(F)(F)F)c1)Nc1cc(S(=O)(=O)NC2CC2)ccc1-c1ccsc1 [AGI-6780] + Cc1cc(Nc2cc(N3CCN(C)CC3)nc(Sc3ccc(NC(=O)C4CC4)cc3)n2)n[nH]1 [Tozasertib] (partner 0.1 µM)
Procedure, shortened: (§1)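 Lung cancer cell lines in 1536-well plates were dosed by pin tool the day after seeding, either with one drug alone or with a fixed anchor-drug dose plus five library-drug doses (not always all listed) in √10 steps. After 5 days, cells were fixed and their nuclei stained in one step (final 0.05% Triton X-100, 1% formaldehyde, 1 ug/ml Hoechst), then counted on 4× images. Relative viability is the nuclei count in treated wells divided by that in vehicle wells. Values are medians of duplicate plates.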

AGI-6780 + Vorinostat = compound: O=C(Nc1cccc(C(F)(F)F)c1)Nc1cc(S(=O)(=O)NC2CC2)ccc1-c1ccsc1 [AGI-6780] + O=C(CCCCCCC(=O)Nc1ccccc1)NO [Vorinostat] (partner 1 µM)
Procedure, shortened: as §1

AGI-6780 + AZD7762 = compound: O=C(Nc1cccc(C(F)(F)F)c1)Nc1cc(S(=O)(=O)NC2CC2)ccc1-c1ccsc1 [AGI-6780] + NC(=O)Nc1cc(-c2cccc(F)c2)sc1C(=O)N[C@H]1CCCNC1 [AZD7762] (partner 0.2 µM)
Procedure, shortened: as §1

AGI-6780 + Dasatinib = compound: O=C(Nc1cccc(C(F)(F)F)c1)Nc1cc(S(=O)(=O)NC2CC2)ccc1-c1ccsc1 [AGI-6780] + Cc1nc(Nc2ncc(C(=O)Nc3c(C)cccc3Cl)s2)cc(N2CCN(CCO)CC2)n1 [Dasatinib] (partner 0.075 µM)
Procedure, shortened: as §1

AGI-6780 + Trametinib = compound: O=C(Nc1cccc(C(F)(F)F)c1)Nc1cc(S(=O)(=O)NC2CC2)ccc1-c1ccsc1 [AGI-6780] + CC(=O)Nc1cccc(-n2c(=O)n(C3CC3)c(=O)c3c(Nc4ccc(I)cc4F)n(C)c(=O)c(C)c32)c1 [Trametinib] (partner 0.02 µM)
Procedure, shortened: as §1

AGI-6780 + Luminespib = compound: O=C(Nc1cccc(C(F)(F)F)c1)Nc1cc(S(=O)(=O)NC2CC2)ccc1-c1ccsc1 [AGI-6780] + CCNC(=O)c1noc(-c2cc(C(C)C)c(O)cc2O)c1-c1ccc(CN2CCOCC2)cc1 [Luminespib] (partner 0.01 µM)
Procedure, shortened: as §1

AGI-6780 + Pemetrexed = compound: O=C(Nc1cccc(C(F)(F)F)c1)Nc1cc(S(=O)(=O)NC2CC2)ccc1-c1ccsc1 [AGI-6780] + Nc1nc2[nH]cc(CCc3ccc(C(=O)N[C@@H](CCC(=O)O)C(=O)O)cc3)c2c(=O)[nH]1 [Pemetrexed] (partner 0.2 µM)
Procedure, shortened: as §1

AGI-6780 + Olaparib = compound: O=C(Nc1cccc(C(F)(F)F)c1)Nc1cc(S(=O)(=O)NC2CC2)ccc1-c1ccsc1 [AGI-6780] + O=C(c1cc(Cc2n[nH]c(=O)c3ccccc23)ccc1F)N1CCN(C(=O)C2CC2)CC1 [Olaparib] (partner 8 µM)
Procedure, shortened: as §1

AGI-6780 + OSI-027 = compound: O=C(Nc1cccc(C(F)(F)F)c1)Nc1cc(S(=O)(=O)NC2CC2)ccc1-c1ccsc1 [AGI-6780] + COc1cccc2cc(-c3nc([C@H]4CC[C@H](C(=O)O)CC4)n4ncnc(N)c34)[nH]c12 [OSI-027] (partner 0.5 µM)
Procedure, shortened: as §1

AGI-6780 + Phenformin = compound: O=C(Nc1cccc(C(F)(F)F)c1)Nc1cc(S(=O)(=O)NC2CC2)ccc1-c1ccsc1 [AGI-6780] + N=C(N)NC(=N)NCCc1ccccc1 [Phenformin] (partner 250 µM)
Procedure, shortened: as §1

AGI-6780 + Decitabine = compound: O=C(Nc1cccc(C(F)(F)F)c1)Nc1cc(S(=O)(=O)NC2CC2)ccc1-c1ccsc1 [AGI-6780] + Nc1ncn([C@H]2C[C@H](O)[C@@H](CO)O2)c(=O)n1 [Decitabine] (partner 2 µM)
Procedure, shortened: as §1

AGI-6780 + Palbociclib = compound: O=C(Nc1cccc(C(F)(F)F)c1)Nc1cc(S(=O)(=O)NC2CC2)ccc1-c1ccsc1 [AGI-6780] + CC(=O)c1c(C)c2cnc(Nc3ccc(N4CCNCC4)cn3)nc2n(C2CCCC2)c1=O [Palbociclib] (partner 0.5 µM)
Procedure, shortened: as §1

## NCI-H522
AGI-6780; 0.08 µM
  relative viability: 0.972
AGI-6780; 0.253 µM
  relative viability: 0.965
AGI-6780; 0.8 µM
  relative viability: 0.909
AGI-6780; 2.53 µM
  relative viability: 0.865
AGI-6780; 8 µM
  relative viability: 0.962
AGI-6780 + Tozasertib; first compound 0.08 µM
  relative viability: 0.485
AGI-6780 + Tozasertib; first compound 0.253 µM
  relative viability: 0.5
AGI-6780 + Tozasertib; first compound 0.8 µM
  relative viability: 0.606
AGI-6780 + Tozasertib; first compound 2.53 µM
  relative viability: 0.534
AGI-6780 + Tozasertib; first compound 8 µM
  relative viability: 0.53
AGI-6780 + Vorinostat; first compound 0.08 µM
  relative viability: 0.922
AGI-6780 + Vorinostat; first compound 0.253 µM
  relative viability: 0.946
AGI-6780 + Vorinostat; first compound 0.8 µM
  relative viability: 1.05
AGI-6780 + Vorinostat; first compound 8 µM
  relative viability: 0.825
AGI-6780 + AZD7762; first compound 0.08 µM
  relative viability: 0.821
AGI-6780 + AZD7762; first compound 0.253 µM
  relative viability: 0.907
AGI-6780 + AZD7762; first compound 0.8 µM
  relative viability: 0.848
AGI-6780 + AZD7762; first compound 8 µM
  relative viability: 0.78
AGI-6780 + Dasatinib; first compound 0.08 µM
  relative viability: 0.941
AGI-6780 + Dasatinib; first compound 0.253 µM
  relative viability: 0.85
AGI-6780 + Dasatinib; first compound 0.8 µM
  relative viability: 1.01
AGI-6780 + Dasatinib; first compound 2.53 µM
  relative viability: 0.812
AGI-6780 + Dasatinib; first compound 8 µM
  relative viability: 0.836
AGI-6780 + Trametinib; first compound 0.08 µM
  relative viability: 0.667
AGI-6780 + Trametinib; first compound 0.253 µM
  relative viability: 0.801
AGI-6780 + Trametinib; first compound 0.8 µM
  relative viability: 0.75
AGI-6780 + Trametinib; first compound 8 µM
  relative viability: 0.645
AGI-6780 + Luminespib; first compound 0.08 µM
  relative viability: 1.18
AGI-6780 + Luminespib; first compound 0.253 µM
  relative viability: 1.14
AGI-6780 + Luminespib; first compound 0.8 µM
  relative viability: 1.1
AGI-6780 + Luminespib; first compound 2.53 µM
  relative viability: 1.12
AGI-6780 + Luminespib; first compound 8 µM
  relative viability: 1.17
AGI-6780 + Pemetrexed; first compound 0.08 µM
  relative viability: 1.23
AGI-6780 + Pemetrexed; first compound 0.253 µM
  relative viability: 1.04
AGI-6780 + Pemetrexed; first compound 0.8 µM
  relative viability: 0.913
AGI-6780 + Pemetrexed; first compound 8 µM
  relative viability: 1.05
AGI-6780 + Olaparib; first compound 0.08 µM
  relative viability: 0.527
AGI-6780 + Olaparib; first compound 0.253 µM
  relative viability: 0.636
AGI-6780 + Olaparib; first compound 0.8 µM
  relative viability: 0.746
AGI-6780 + Olaparib; first compound 8 µM
  relative viability: 0.551
AGI-6780 + OSI-027; first compound 0.08 µM
  relative viability: 0.782
AGI-6780 + OSI-027; first compound 0.253 µM
  relative viability: 0.724
AGI-6780 + OSI-027; first compound 0.8 µM
  relative viability: 0.804
AGI-6780 + OSI-027; first compound 2.53 µM
  relative viability: 0.564
AGI-6780 + OSI-027; first compound 8 µM
  relative viability: 0.751
AGI-6780 + Phenformin; first compound 0.08 µM
  relative viability: 0.706
AGI-6780 + Phenformin; first compound 0.253 µM
  relative viability: 0.659
AGI-6780 + Phenformin; first compound 0.8 µM
  relative viability: 0.633
AGI-6780 + Phenformin; first compound 2.53 µM
  relative viability: 0.616
AGI-6780 + Phenformin; first compound 8 µM
  relative viability: 0.627
AGI-6780 + Decitabine; first compound 0.08 µM
  relative viability: 0.612
AGI-6780 + Decitabine; first compound 0.253 µM
  relative viability: 0.583
AGI-6780 + Decitabine; first compound 0.8 µM
  relative viability: 0.722
AGI-6780 + Decitabine; first compound 8 µM
  relative viability: 0.588
AGI-6780 + Palbociclib; first compound 0.08 µM
  relative viability: 0.97
AGI-6780 + Palbociclib; first compound 0.253 µM
  relative viability: 0.972
AGI-6780 + Palbociclib; first compound 0.8 µM
  relative viability: 0.968
AGI-6780 + Palbociclib; first compound 8 µM
  relative viability: 0.86
